Measured values taken from US12589064B2, “Trolox-peptide conjugate and use thereof” (Caregen Co., Ltd., priority 2019, dated 2026).
Where no end group is shown, it is not given here.

Key:
[1] = test system: Human hair follicle dermal papilla cells (HFDPC); assay: Cell proliferation of HFDPC (MTT); format: cell-based; settings: 0.5 μM, 5 μM or 50 μM, serum-free medium, 3 days, FIG. 4
Experimental: (§1) Human hair follicle dermal papilla cells (HFDPC) and HaCaT which is human keratinocyte were dispensed by 2×10^3 in each well of a 96-well plate and cultivated overnight. The medium of the cultivated cells was replaced with a serum-free medium, and treatment with Trolox-peptide conjugates of 0.5 μM, 5 μM or 50 μM were performed, and additional cultivation was performed for 3 days. Then, in order to confirm the proliferation of the cells, 4 mg/ml of 3-(4,5-dimethylthiazol-2-yl)-2,5-diphenyltetrazolium bromide (MTT) was put to the wells by 100 μl each and reacted for 4 hours. Formazan thus produced was treated with DMSO and dissolved, and light absorbance at 560 nm was measured using a microplate reader. In this case, as a positive control, 1 μM of IGF-1 or EGF, which is known as a growth factor promoting the proliferation of HFDPC and HaCaT cells was used, and as a comparison group, single compounds of Trolox and a peptide having the amino acid sequences of SEQ ID NO: 1 to SEQ ID NO: 3, having the same amounts as the Trolox-peptide conjugate of the present invention, were used.

HaCaT human keratinocyte = assay: Cell proliferation of HaCaT human keratinocyte (MTT); format: cell-based; settings: 0.5 μM, 5 μM or 50 μM, serum-free medium, 3 days, FIG. 5
Experimental: as §1

Bcl-2 = assay: Expression of Bcl-2 protein involving cell death in HFDPC (western blot); format: cell-based, human; settings: 50 μM, 24 hours; FIG. 10
Experimental: (§2) HFDPCs were dispensed by 3×10^5 in each well of a 6-well plate and cultivated overnight. The medium of the cultivated cells was replaced with a serum-free medium, treatment with Trolox of 50 μM, a Trolox-peptide (SEQ ID NO: 2) conjugate of 50 μM, or a Trolox-peptide (SEQ ID NO: 3) conjugate of 50 μM, was performed for each, and additional cultivation was performed for 24 hours. Then, protein expression change was confirmed by performing western blot using a specific antibody to Bcl-2 and Bax proteins (Santacruz biotechnology, USA).

Bax = assay: Expression of Bax protein involving cell death in HFDPC (western blot); format: cell-based, human; settings: 50 μM, 24 hours; FIG. 10
Experimental: as §2

P-smad 1/5/8 protein = assay: BMP2 cell signal transduction: P-smad 1/5/8 in HFDPC (western blot); format: cell-based, human; settings: 50 μM, 50 ng/μl BMP-2, 15 minutes; FIG. 13
Experimental: HFDPCs were dispensed by 3×10^5 in each well of a 6-well plate and cultivated overnight. The medium of the cultivated cells was replaced with a serum-free medium, and the experiments below were performed.
The HFDPC cells were treated with 50 ng/μl of BMP-2 and a Trolox-peptide (SEQ ID NO: 1) conjugate of 5 μM or 50 μM, and additionally cultivated for 15 minutes. Then, western blot was performed using a specific […] to a P-smad 1/5/8 protein which is a subprotein of which expression is controlled by BMP2 cell signal transduction (Cell signaling, USA), and the expression change of a protein was confirmed.

Row | Compound | cell proliferation of HFDPC [1] | cell proliferation of HaCaT (HaCaT human keratinocyte) | expression of Bcl-2 (Bcl-2) | expression of Bax (Bax) | level of expression of the P-smad 1/5/8 protein increased by the treatment with BMP2 (P-smad 1/5/8 protein)
1 | Cc1c(C)c2c(c(C)c1O)CCC(C)(C(=O)O)O2 (centres unmarked) [Trolox, 6-hydroxy-2,5,7,8-tetramethylchromane-2-carboxylic acid] | rarely showed cell proliferation effects | rarely showed cell proliferation effects | no change | increased | –
2 | Trolox-peptide (SEQ ID NO: 1) conjugate: Trolox chemically bonded to the peptide Glu-Leu-Ile-Glu-His-Gly-Gly-Gly-Arg-Pro-Ala-Asp (SEQ ID NO: 1) (ELIEHGGGRPAD; not fully specified (N-terminus); printed as Glu-Leu-Ile-Glu-His-Gly-Gly-Gly-Arg-Pro-Ala-Asp; also: Trolox chemically bonded, site not given here) | – | – | – | – | reduced
